Data from patent US11564913B2, “Compositions and methods for treating cancer” (Children's Hospital Medical Center, priority 2019, dated 2023).

Tests used:
[1] = system: Vav3−/− p190-BCR-ABL1 BM leukemic cells expressing full-length Vav3; experiment: Vav3 rescue, cell cycle analysis; format: cell-based, murine; conditions: 10 μM, 18 h
Text: (§1) FIG. 15: Expression of transgenic Vav3 re-sensitizes Vav3-deficient cells to IODVA1. (A) Vav3 domain structure, calponin-homology (CH), acidic region (Ac), Dbl-homology (DH), pleckstrin-homology (PH), zinc finger (ZF), Src-homology 2 and 3 (SH2/SH3). (B) Representative histogram data of the cell cycle analysis of wild-type (Vav3^+/+) and Vav3-deficient (Vav3^−/−) p190-BCR-ABL1 leukemic bone marrow cells expressing empty vector, full-length Vav3 or ΔCH mutant and treated with vehicle control (black) or IODVA1 at 5 (red) or 10 μM (dark grey) for 18 h. (C) Quantification of the average number of colonies made by bone marrow wild-type and Vav3^−/− p190-BCR-ABL1 leukemic bone marrow cells expressing empty vector, full-length Vav3 or ΔCH mutant and treated with vehicle control (black) or IODVA1 at 1 (light salmon), 5 (red) and 10 μM (dark grey). *** p≤0.001.
(§2) Next, we reasoned that if IODVA1 targets Vav3, rescuing Vav3^−/− leukemic cells by expressing exogenous Vav3 should re-sensitize those cells to IODVA1. We expressed full-length Vav3 or the dominant active ΔCH-mutant (FIG. 15A) in Vav3^−/− p190-BCR-ABL1-transformed murine bone marrow leukemic cells and analyzed changes in cell cycle 18 h post-treatment with vehicle control or IODVA1 (FIG. 15B). Expressing full-length Vav3 but not the empty vector re-sensitized the Vav3^−/− BM leukemic cells to IODVA1 as shown by a 5.8-fold increase in apoptosis (p=0.0005) and a 15% decrease (p=0.08) in cells in the S-phase at 10 μM.
(§3) For Vav3 rescue experiments, low density bone marrow cells from wild-type ([…]) or Vav3^−/− mice were transduced with bicistronic retroviral vector encoding p190 BCR-ABL1-IRES-YFP (yellow fluorescent protein) and YFP^+ cells were sorted 48 h post-transduction. […] Cell cycle was analyzed at 18 h post BrdU incorporation.
(§4) Cell cycle was analyzed by using in vitro incorporation of 5-Bromo-2-deoxyuridine using Brdu Flow kit (BD Pharmingen, Cat #552598). […] DNAse treatment was done according to the instructions and stained with anti BrdU and apoptosis was analyzed by 7-AAD staining through flow cytometry analysis.

[2] = system: Vav3−/− p190-BCR-ABL1 BM leukemic cells expressing ΔCH-mutant Vav3; experiment: Vav3 rescue, cell cycle analysis; format: cell-based, murine; conditions: even at the highest concentration
Text: as §1, §2, §3, §4

Question: OC1(c2ccccn2)N=C(Nc2nc3ccccc3[nH]2)N=C1c1ccccn1 (stereo not drawn) [IODVA1, (Z)-2-((1H-benzo[d]imidazol-2-yl)imino)-4,5-di(pyridin-2-yl)-2,5-dihydro-1H-imidazol-5-ol] was tested. Which increase in apoptosis ([1]; p=0.0005) did it give?
Answer: 5.8 fold

Question: And the “decrease in cells in the S-phase” value ([1]; p=0.08)?
Answer: 15%

Question: What about the “re-sensitization to IODVA1” value [2] of the same compound?
Answer: did not re-sensitize
